# Laboratory results from patent US20230017045A1, “PYRIDINE AND PYRIMIDINE CARBOXYLATE HERBICIDES AND METHODS OF USE THEREOF” (Dow AgroSciences LLC, priority 2017, published 2023).
# Test system: test plant species
# Assay: Post-emergent herbicidal activity test (greenhouse, foliar spray, visual growth reduction)
# Format: in vivo
# Details: post-emergence, 336 h, ALOMY: blackgrass (Alopecurus myosuroides), 140 g ai/ha, 14 days after application, read-out: Visual Growth Reduction (%) 14 Days After Application, ALOMY
# Method in brief: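 Seedlings were raised 7-21 d in a greenhouse under a 15 h photoperiod until the first or second true leaf. Each compound, dissolved in acetone:DMSO 97:3 and diluted into a surfactant-containing spray mixture, was then applied at 187 L/ha. Plants were subirrigated, and growth reduction was scored visually at 14 d.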
row,SMILES,pest or weed control at 140 g/ha [%]
1,"COC(=O)c1nc(-c2cc(OC)c(Cl)cc2Cl)ccc1Cl [F47, Methyl 3-chloro-6-(2,4-dichloro-5-methoxyphenyl) picolinate]",0 to 29
2,"COC(=O)c1nc(-c2ccc(C(F)(F)F)cc2C#N)ccc1Cl [F24, Methyl 3-chloro-6-(2-cyano-4-(trifluoromethyl)phenyl) picolinate]",0 to 29

# Same assay, conditions: post-emergence, 336 h, AMARE: redroot pigweed (Amaranthus retroflexus), 140 g ai/ha, 14 days after application, read-out: Visual Growth Reduction (%) 14 Days After Application, AMARE
row,SMILES,pest or weed control at 140 g/ha [%]
1,"COC(=O)c1nc(-c2cc(OC)c(Cl)cc2Cl)ccc1Cl [F47, Methyl 3-chloro-6-(2,4-dichloro-5-methoxyphenyl) picolinate]",0 to 29
2,"COC(=O)c1nc(-c2ccc(C(F)(F)F)cc2C#N)ccc1Cl [F24, Methyl 3-chloro-6-(2-cyano-4-(trifluoromethyl)phenyl) picolinate]",85 to 94

# Same assay, conditions: post-emergence, 336 h, AVEFA: wild oat (Avena fatua), 140 g ai/ha, 14 days after application, read-out: Visual Growth Reduction (%) 14 Days After Application, AVEFA
row,SMILES,pest or weed control at 140 g/ha [%]
1,"COC(=O)c1nc(-c2cc(OC)c(Cl)cc2Cl)ccc1Cl [F47, Methyl 3-chloro-6-(2,4-dichloro-5-methoxyphenyl) picolinate]",0 to 29
2,"COC(=O)c1nc(-c2ccc(C(F)(F)F)cc2C#N)ccc1Cl [F24, Methyl 3-chloro-6-(2-cyano-4-(trifluoromethyl)phenyl) picolinate]",0 to 29

# Same assay, conditions: post-emergence, 336 h, CHEAL: lambsquarters (Chenopodium album), 140 g ai/ha, 14 days after application, read-out: Visual Growth Reduction (%) 14 Days After Application, CHEAL
row,SMILES,pest or weed control at 140 g/ha [%]
1,"COC(=O)c1nc(-c2cc(OC)c(Cl)cc2Cl)ccc1Cl [F47, Methyl 3-chloro-6-(2,4-dichloro-5-methoxyphenyl) picolinate]",0 to 29
2,"COC(=O)c1nc(-c2ccc(C(F)(F)F)cc2C#N)ccc1Cl [F24, Methyl 3-chloro-6-(2-cyano-4-(trifluoromethyl)phenyl) picolinate]",95 to 100

# Same assay, conditions: post-emergence, 336 h, CIRAR: canada thistle (Cirsium arvense), 140 g ai/ha, 14 days after application, read-out: Visual Growth Reduction (%) 14 Days After Application, CIRAR
row,SMILES,pest or weed control at 140 g/ha [%]
1,"COC(=O)c1nc(-c2cc(OC)c(Cl)cc2Cl)ccc1Cl [F47, Methyl 3-chloro-6-(2,4-dichloro-5-methoxyphenyl) picolinate]",0 to 29
2,"COC(=O)c1nc(-c2ccc(C(F)(F)F)cc2C#N)ccc1Cl [F24, Methyl 3-chloro-6-(2-cyano-4-(trifluoromethyl)phenyl) picolinate]",95 to 100

# Same assay, conditions: post-emergence, 336 h, CYPES: yellow nutsedge (Cyperus esculentus), 140 g ai/ha, 14 days after application, read-out: Visual Growth Reduction (%) 14 Days After Application, CYPES
row,SMILES,pest or weed control at 140 g/ha [%]
1,"COC(=O)c1nc(-c2cc(OC)c(Cl)cc2Cl)ccc1Cl [F47, Methyl 3-chloro-6-(2,4-dichloro-5-methoxyphenyl) picolinate]",0 to 29
2,"COC(=O)c1nc(-c2ccc(C(F)(F)F)cc2C#N)ccc1Cl [F24, Methyl 3-chloro-6-(2-cyano-4-(trifluoromethyl)phenyl) picolinate]",0 to 29

# Same assay, conditions: post-emergence, 336 h, DIGSA: crabgrass (Digitaria sanguinalis), 140 g ai/ha, 14 days after application, read-out: Visual Growth Reduction (%) 14 Days After Application, DIGSA
row,SMILES,pest or weed control at 140 g/ha [%]
1,"COC(=O)c1nc(-c2cc(OC)c(Cl)cc2Cl)ccc1Cl [F47, Methyl 3-chloro-6-(2,4-dichloro-5-methoxyphenyl) picolinate]",0 to 29
2,"COC(=O)c1nc(-c2ccc(C(F)(F)F)cc2C#N)ccc1Cl [F24, Methyl 3-chloro-6-(2-cyano-4-(trifluoromethyl)phenyl) picolinate]",85 to 94

# Same assay, conditions: post-emergence, 336 h, ECHCG: barnyardgrass (Echinochloa crus-galli), 140 g ai/ha, 14 days after application, read-out: Visual Growth Reduction (%) 14 Days After Application, ECHCG
row,SMILES,pest or weed control at 140 g/ha [%]
1,"COC(=O)c1nc(-c2cc(OC)c(Cl)cc2Cl)ccc1Cl [F47, Methyl 3-chloro-6-(2,4-dichloro-5-methoxyphenyl) picolinate]",0 to 29
2,"COC(=O)c1nc(-c2ccc(C(F)(F)F)cc2C#N)ccc1Cl [F24, Methyl 3-chloro-6-(2-cyano-4-(trifluoromethyl)phenyl) picolinate]",85 to 94

# Same assay, conditions: post-emergence, 336 h, IPOHE: ivy-leaf morning glory (Ipomoea hederacea), 140 g ai/ha, 14 days after application, read-out: Visual Growth Reduction (%) 14 Days After Application, IPOHE
row,SMILES,pest or weed control at 140 g/ha [%]
1,"COC(=O)c1nc(-c2ccc(C(F)(F)F)cc2C#N)ccc1Cl [F24, Methyl 3-chloro-6-(2-cyano-4-(trifluoromethyl)phenyl) picolinate]",95 to 100

# Same assay, conditions: post-emergence, 336 h, KCHSC: kochia (Bassia scoparia), 140 g ai/ha, 14 days after application, read-out: Visual Growth Reduction (%) 14 Days After Application, KCHSC
row,SMILES,pest or weed control at 140 g/ha [%]
1,"COC(=O)c1nc(-c2cc(OC)c(Cl)cc2Cl)ccc1Cl [F47, Methyl 3-chloro-6-(2,4-dichloro-5-methoxyphenyl) picolinate]",0 to 29
2,"COC(=O)c1nc(-c2ccc(C(F)(F)F)cc2C#N)ccc1Cl [F24, Methyl 3-chloro-6-(2-cyano-4-(trifluoromethyl)phenyl) picolinate]",60 to 74

# Same assay, conditions: post-emergence, 336 h, ORYSA: rice (Oryza sativa), 140 g ai/ha, 14 days after application, read-out: Visual Growth Reduction (%) 14 Days After Application, ORYSA
row,SMILES,pest or weed control at 140 g/ha [%]
1,"COC(=O)c1nc(-c2cc(OC)c(Cl)cc2Cl)ccc1Cl [F47, Methyl 3-chloro-6-(2,4-dichloro-5-methoxyphenyl) picolinate]",0 to 29
2,"COC(=O)c1nc(-c2ccc(C(F)(F)F)cc2C#N)ccc1Cl [F24, Methyl 3-chloro-6-(2-cyano-4-(trifluoromethyl)phenyl) picolinate]",0 to 29

# Same assay, conditions: post-emergence, 336 h, SETFA: giant foxtail (Setaria faberi), 140 g ai/ha, 14 days after application, read-out: Visual Growth Reduction (%) 14 Days After Application, SETFA
row,SMILES,pest or weed control at 140 g/ha [%]
1,"COC(=O)c1nc(-c2cc(OC)c(Cl)cc2Cl)ccc1Cl [F47, Methyl 3-chloro-6-(2,4-dichloro-5-methoxyphenyl) picolinate]",0 to 29
2,"COC(=O)c1nc(-c2ccc(C(F)(F)F)cc2C#N)ccc1Cl [F24, Methyl 3-chloro-6-(2-cyano-4-(trifluoromethyl)phenyl) picolinate]",45 to 59

# Same assay, conditions: post-emergence, 336 h, SORVU: grain sorghum (Sorghum vulgare), 140 g ai/ha, 14 days after application, read-out: Visual Growth Reduction (%) 14 Days After Application, SORVU
row,SMILES,pest or weed control at 140 g/ha [%]
1,"COC(=O)c1nc(-c2cc(OC)c(Cl)cc2Cl)ccc1Cl [F47, Methyl 3-chloro-6-(2,4-dichloro-5-methoxyphenyl) picolinate]",0 to 29
2,"COC(=O)c1nc(-c2ccc(C(F)(F)F)cc2C#N)ccc1Cl [F24, Methyl 3-chloro-6-(2-cyano-4-(trifluoromethyl)phenyl) picolinate]",85 to 94

# Same assay, conditions: post-emergence, 336 h, STEME: common chickweed (Stellaria media), 140 g ai/ha, 14 days after application, read-out: Visual Growth Reduction (%) 14 Days After Application, STEME
row,SMILES,pest or weed control at 140 g/ha [%]
1,"COC(=O)c1nc(-c2cc(OC)c(Cl)cc2Cl)ccc1Cl [F47, Methyl 3-chloro-6-(2,4-dichloro-5-methoxyphenyl) picolinate]",0 to 29
2,"COC(=O)c1nc(-c2ccc(C(F)(F)F)cc2C#N)ccc1Cl [F24, Methyl 3-chloro-6-(2-cyano-4-(trifluoromethyl)phenyl) picolinate]",0 to 29

# Same assay, conditions: post-emergence, 336 h, TRZAS: wheat, spring (Triticum aestivum), 140 g ai/ha, 14 days after application, read-out: Visual Growth Reduction (%) 14 Days After Application, TRZAS
row,SMILES,pest or weed control at 140 g/ha [%]
1,"COC(=O)c1nc(-c2cc(OC)c(Cl)cc2Cl)ccc1Cl [F47, Methyl 3-chloro-6-(2,4-dichloro-5-methoxyphenyl) picolinate]",0 to 29
2,"COC(=O)c1nc(-c2ccc(C(F)(F)F)cc2C#N)ccc1Cl [F24, Methyl 3-chloro-6-(2-cyano-4-(trifluoromethyl)phenyl) picolinate]",0 to 29
